Assay results from PMC8041276 (ACS Chemical Neuroscience, 2021).

Legend:
5-HT1AR = target: T1, 5-HT1AR (Homo sapiens, UniProt P08908); test: [3H]-8-OH-DPAT radioligand binding assay, HEK293 cells; conditions: mean of three experiments
T1 construct: expressed in transfected cells
T1 sequence (P08908 1-422): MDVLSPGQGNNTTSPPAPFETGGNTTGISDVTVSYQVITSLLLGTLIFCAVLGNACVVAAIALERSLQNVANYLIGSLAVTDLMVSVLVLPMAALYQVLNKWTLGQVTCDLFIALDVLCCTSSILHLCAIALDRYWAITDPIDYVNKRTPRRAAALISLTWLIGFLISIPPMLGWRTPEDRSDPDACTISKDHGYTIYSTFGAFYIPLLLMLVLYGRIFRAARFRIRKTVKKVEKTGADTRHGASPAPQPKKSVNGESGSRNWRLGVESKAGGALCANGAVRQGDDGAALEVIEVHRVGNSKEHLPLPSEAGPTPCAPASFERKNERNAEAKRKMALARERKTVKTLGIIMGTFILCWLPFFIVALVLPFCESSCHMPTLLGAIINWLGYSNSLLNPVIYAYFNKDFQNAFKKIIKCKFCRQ
Description: (§1) All experiments were carried out according to the previously published procedures.[41]−[43] HEK293 cells stably expressing human 5-HT1A, 5-HT6, 5-HT7b, and D2L receptors (prepared with the use of Lipofectamine 2000) or CHO-K1 cells with plasmid containing the sequence coding for the human serotonin 5-HT2A receptor (PerkinElmer) were maintained at 37 °C in a humidified atmosphere containing 5% CO2 and grown in Dulbecco’s modified Eagle’s medium containing 10% dialyzed fetal bovine serum and 500 μg/mL G418 sulfate. For membrane preparation, cells were cultured in 150 cm^2 flasks, grown to 90% confluence, washed twice with prewarmed to 37 °C phosphate buffered saline (PBS), and centrifuged (200g) in PBS containing 0.1 mM EDTA and 1 mM dithiothreitol. Prior to membrane preparation, pellets were stored at −80 °C. Cell pellets were thawed and homogenized in 10 volumes of assay buffer using an Ultra Turrax tissue homogenizer and centrifuged twice at 35 000g for 15 min at 4 °C, with incubation for 15 min at 37 °C between the centrifugations. The composition of the assay buffers was experimentally selected to achieve the maximum signal window (more details in Supporting Information). All assays were carried out in a total volume of 200 μL in 96-well plates for 1 h at 37 °C except 5-HT1AR and 5-HT2AR which were incubated at room temperature and 27 °C, respectively. The process of equilibration was terminated by rapid filtration through Unifilter plates with a 96-well cell harvester, and radioactivity retained on the filters was quantified on a Microbeta plate reader (PerkinElmer, USA). For displacement studies the assay samples contained the following as radioligands (PerkinElmer, USA): 2.5 nM [^3H]-8-OH-DPAT (135.2 Ci/mmol) for 5-HT1AR; 1 nM [^3H]-ketanserin (53.4 Ci/mmol) for 5-HT2AR; 2 nM [^3H]-LSD (83.6 Ci/mmol) for 5-HT6R; 0.8 nM [^3H]-5-CT (39.2 Ci/mmol) for 5-HT7R or 2.5 nM [^3H]-raclopride (76.0 Ci/mmol) for D2LR. Nonspecific binding was defined in the presence of 10 μM 5-HT in 5-HT1AR and 5-HT7R binding experiments, whereas 20 μM mianserin, 10 μM methiothepine, and 10 μM haloperidol were used in 5-HT2AR, 5-HT6R, and D2LR assays, respectively. Each compound was tested in triplicate at seven concentrations (10^–10–10^–4 M). The inhibition constants (Ki) were calculated from the Cheng–Prusoff equation.[44]

5-HT7R = target: T2, 5-HT7R (Homo sapiens, UniProt P34969); test: [3H]-5-CT radioligand binding assay, HEK293 cells; conditions: mean of three experiments
T2 construct: expressed in transfected cells
T2 sequence (P34969 1-432): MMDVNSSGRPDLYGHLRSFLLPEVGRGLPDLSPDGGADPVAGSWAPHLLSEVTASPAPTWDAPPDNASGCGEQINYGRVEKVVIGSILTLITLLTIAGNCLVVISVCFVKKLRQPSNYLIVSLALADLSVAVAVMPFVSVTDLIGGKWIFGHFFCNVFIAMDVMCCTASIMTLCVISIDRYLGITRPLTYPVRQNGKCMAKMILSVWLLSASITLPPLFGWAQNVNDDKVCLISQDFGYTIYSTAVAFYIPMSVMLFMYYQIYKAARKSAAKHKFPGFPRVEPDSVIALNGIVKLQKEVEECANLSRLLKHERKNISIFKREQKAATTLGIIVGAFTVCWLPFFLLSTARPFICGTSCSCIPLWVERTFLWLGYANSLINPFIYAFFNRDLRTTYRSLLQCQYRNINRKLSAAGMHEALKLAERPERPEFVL
Description: as §1

D2R = target: T3, D2R (Homo sapiens, UniProt P14416); test: [3H]-raclopride radioligand binding assay, HEK293 cells; conditions: mean of three experiments
T3 construct: expressed in transfected cells
T3 sequence (P14416 whole entry): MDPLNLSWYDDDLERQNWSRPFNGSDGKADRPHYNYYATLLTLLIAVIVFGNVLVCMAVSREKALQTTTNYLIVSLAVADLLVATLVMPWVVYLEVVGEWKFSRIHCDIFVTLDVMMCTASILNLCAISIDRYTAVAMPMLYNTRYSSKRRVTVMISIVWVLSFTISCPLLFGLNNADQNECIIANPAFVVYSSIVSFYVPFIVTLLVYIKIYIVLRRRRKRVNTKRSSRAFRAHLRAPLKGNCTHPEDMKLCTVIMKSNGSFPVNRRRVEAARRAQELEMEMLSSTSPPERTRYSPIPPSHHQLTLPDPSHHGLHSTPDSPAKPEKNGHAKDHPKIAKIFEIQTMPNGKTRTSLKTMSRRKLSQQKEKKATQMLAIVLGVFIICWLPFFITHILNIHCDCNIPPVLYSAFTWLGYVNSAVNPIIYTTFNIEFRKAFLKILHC
Description: as §1

[1] = Metabolic stability in rat liver microsomes; type: in vitro ADME; conditions: male, pH 7.4, 10 μM compound, read-out: intrinsic clearance
Description: Metabolic stability of compounds 27 and 28 was analyzed using incubation systems composed of tested compound (10 μM), rat liver microsomes (RLMs, microsomes from rat male liver, pooled; 0.4 mg/mL; Sigma-Aldrich), NADPH-regenerating system (NADP+, glucose-6-phosphate, and glucose-6-phosphate dehydrogenase in 100 mM potassium buffer, pH 7.4; all from Sigma-Aldrich) and potassium buffer, pH 7.4. […] First, all samples containing incubation mixture (without NADPH-regenerating system) were preincubated in thermoblock at 37 °C for 10 min. Then reaction was initiated by the addition of NADPH-regenerating system. In control samples NADPH-regenerating system was replaced with potassium buffer. Probes were incubated for 30 and 60 min at 37 °C. After addition of internal standard (pentoxifylline, 10 μM) biotransformation process was stopped by addition of perchloric acid. Next, samples were centrifuged and supernatants were analyzed using UPLC/MS (Waters Corporation, Milford, MA). All experiments were run in duplicates. Half-life time was evaluated using nonlinear regression model using GraphPad Prism software, and intrinsic clearance was calculated from the equation Clint = (volume of incubation [μL]/protein in the incubation [mg])0.693/t1/2.[46]

Row | SMILES | Ki (5-HT1AR) | Ki (5-HT7R) | Ki (D2R) | microsomal CLint at 10 μM [1]
1 | O=C(N[C@@H]1CCNC1)c1ccn(S(=O)(=O)c2cccc(Cl)c2)c1-c1ccc(F)cc1 [Compound 27, (R)-2-(4-Fluorophenyl)-1-[(3-chlorophenyl)sulfonyl]-N-(pyrrolidin-3-yl)-1H-pyrrole-3-carboxamide] | 53.7 µM | 42 µM | 7.08 µM | 0.82 µL/min/mg
2 | O=C(N[C@H]1CCNC1)c1ccn(S(=O)(=O)c2cccc(Cl)c2)c1-c1ccc(F)cc1 [Compound 28, (S)-2-(4-Fluorophenyl)-1-[(3-chlorophenyl)sulfonyl]-N-(pyrrolidin-3-yl)-1H-pyrrole-3-carboxamide] | 61.5 µM | 3.53 µM | 7.34 µM | 1.03 µL/min/mg
